Measurements from patent US11413278B2, “Compounds and methods for promoting stress resistance” (priority 2015, dated 2022).
Like-named read-outs stand apart in the source and are kept apart here.

Assays:
human PARP1 = biological target: T1, human PARP1 (Homo sapiens, UniProt P09874); test: PARP inhibitor assay (HT Fluorescent Homogeneous PARP Inhibition Assay Kit); assay type: biochemical; details: score
T1 construct: purchased Trevigen
Experimental: (§1) The assay was performed with the HT Fluorescent Homogeneous PARP Inhibition Assay Kit (Trevigen), following manufacturer's instructions. Briefly, nicotinamide adenine dinucleotide, human PARP1 and activated-DNA solution was added onto a 96-well plate. 54 repurchased small molecules, at 10 μM final concentration, were introduced onto the 96-well assay plate and incubated in a humid chamber at room temperature for 30 min in dark. Cycling mixture, with resazurin and cycling enzyme diaphorase, was then added and incubated further for 1 hr in dark. Reaction was terminated by adding the stopping buffer.
as §1, with “(Trevegen),” for “(Trevigen),”, “stopped” for “terminated”

WI-38 cells [1] = test: MMS resistance assay; assay type: cell-based, human; details: for fold induction at 10 µM: Homo sapiens, 12 h, normalized ATP measurement; for Assay 3: MMS-resistant / Assay 5: Triple resistant: YES/NO; for Assay 3: MMS-resistant: * indicates partial; for Assay 5: Triple resistant: H2O2, cadmium and MMS
Procedure, shortened: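 WI-38 cells were given compounds at five final concentrations (0.25–20 μM) in triplicate, followed by cadmium or MMS for 12 h. For MMS, medium was switched from OptiMEM+10% FBS to serum-free DMEM+2% BSA when compounds were added, 24 h before stressor. Two independent assays were run, analysed by global variance t-test.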

[2] = test system: PC12 cells expressing poly(Q)103-Htt-EGFP; test: Poly(Q) toxicity & viability analysis (cellular model of Huntington's disease); assay type: cell-based, rat; details: for M = Huntington's poly-Q toxicity attenuation: score; for K = Huntington's poly-Q toxicity attenuation: summary score
Experimental: Viability assays were performed as described before (Aiken et al., 2004). PC12 cells that stably express the inducible poly(Q)103-Htt-EGFP were grown in culture. […] Cell viability was analyzed 48 hrs later by measuring ATP content with CellTiter-Glo.
Toxic protein aggregation is a key feature of many age-related neurodegenerative diseases, including Alzheimer's and Huntington's disease (Caughey and Lansbury, 2003; Ross and Poirier, 2004). A number of animal models (Phillips et al., 2009) and cell models (Schlachetzki et al., 2013) have been established to study these diseases. For this purpose, PC12 rat pheochromocytoma cells display neuronal features and produce neurotransmitters and have been used extensively to study neuronal phenotypes, including synaptic transmission and neurological diseases. […] In this model, induced expression of poly(Q)103-Htt-EGFP could lead to the formation of aggregates and exert substantial toxicity in cells.

C. elegans = C. elegans lifespan assays (liquid and plate); assay type: in vivo, Caenorhabditis elegans; details: for ILS at 60 µM / ILS at 66 µM: Caenorhabditis elegans; for O = Life span- extending scores in worms: score scale 0 to 2, 4 to 6 independent trials; for M = Lifespan-extending scores in worms: summary score; for Extension of C. elegans' lifespan (qualitative): in at least 3 to 4 trials, group range ~10% to ~50%
[3] = test system: phosphorylated γH2A.X and TP53BP1; test: DNA damage marker analysis (immuno-staining); details: for activity at 10 µM: Homo sapiens, WI-38, 24 h; for P = Potential DNA-damaging / R = Potential DNA damaging: human, 24 h
Experimental: WI-38 cells were seeded on 96-well plates and cultured for 24 hrs and then incubated with small molecules for another 24 hrs. As the positive control to damage DNA, H2O2 was supplemented at 700 μM final concentration for the last 3 hrs. Cells were washed with phosphate-buffered saline (PBS), fixed with 4% paraformaldehyde and then blocked with 5% normal goat serum (Cell Signaling), plus 0.3% Triton X-100, for 1 hr. Primary antibody cocktail (rabbit anti-phospho-histone γH2A.X (Ser-139), 1:100; anti-phospho-TP53BP1 (Ser-1778), 1:100), prepared in 1% BSA and 0.3% Triton X-100/PBS, was then introduced and incubated overnight at 4 C. Next day, samples were washed with PBS and further incubated with fluorophore-conjugated secondary antibody (1:1,000) for 1 hr in the dark. Samples were then washed and incubated with DAPI dye (Life Technologies) (4 μg/ml final concentration) for the last 10 minutes. Images were collected on an INCell Analyzer 2000 (GE) and analyzed with the Developer software.
WI-38 cells were seeded (˜8,000 cells per well) on 96-well plates and cultured for 24 hrs and then incubated with small molecules for another 24 hrs. Doxorubicin (300 nM, 24 hrs) and H2O2 (700 μM, 3 hrs) were also introduced as the positive controls to damage DNA. Cells were washed with phosphate-buffered saline (PBS), fixed with 4% paraformaldehyde for 30 min and then blocked with 5% normal goat serum (Cell Signaling) and 0.3% Triton X-100 for 1 hr. Primary antibody cocktail (Cell Signaling, rabbit anti-phospho-histone γH2A.X (Ser-139), 1:100; anti-phospho-TP53BP1 (Ser-1778), 1:100) was prepared in PBS with 1% BSA and 0.3% Triton X-100 and incubated overnight at 4° C. Next day, samples were washed with PBS and further incubated with fluorophore-conjugated secondary antibody (1:1,000) for 1 hr in dark. Samples were then washed and incubated with DAPI dye (Life Technologies) (4 μg/ml final concentration) for 30 minutes. Images were collected on the INCell Analyzer 2000 (10× objective) and analyzed with the Developer Toolbox.

WI-38 cells [4] = details: for No H2O2 stress treatment, at 10 uM (fold change): normalized ATP measurement; for Assay 1: H2O2-resistant: YES/NO, if NO, possibly due to repeated freezing/thawing of stocks
[5] = Exp. 1, WI-38 cells, read-out: Exp. 1, under MMS stress treatment, at 10 uM (fold change)
[6] = Exp. 2, WI-38 cells, read-out: Exp. 2, under MMS stress treatment, at 10 uM (fold change)
[7] = score in summary of 38 core set hits
[8] = in liquid, wild type, with FuDR, 1.0 × 10^9 bacteria/ml, read-out: relative change of mean lifespan vs control, Trial 1
[9] = in liquid, wild type, with FuDR, 2.5 × 10^9 bacteria/ml, read-out: relative change of mean lifespan vs control, Trial 2
[10] = on plate, CF512 temperature-sensitive sterile animals, without FuDR, 2.0 × 10^10 bacteria/ml, read-out: relative change of mean lifespan vs control, Trial 3
[11] = Assay 2(z), 1.0 × 10^9 bacteria/ml, wild type + FuDR (2012 July), read-out: Lifespan assay in liquid
[12] = Assay 3(aa), 2.5 × 10^9 bacteria/ml, wild type + FuDR, read-out: Lifespan assay in liquid
[13] = Assay 4(ab), 2.0 × 10^10 bacteria/ml, CF512 worms, no FuDR, read-out: Lifespan assay on plates
[14] = read-out: Experiment 1, H2A.X-P DNA damage foci staining (no H2O2 stress treatment), at 10 uM
[15] = read-out: Experiment 2, H2A.X-P DNA damage foci staining (no H2O2 stress treatment), at 10 uM
[16] = read-out: Experiment 2, H2A.X-P DNA damage foci staining (under H2O2 stress treatment), at 10 uM
[17] = read-out: Experiment 2, TP53BP1-P DNA damage foci staining (no H2O2 stress treatment), at 10 uM
[18] = read-out: Experiment 2, TP53BP1-P DNA damage foci staining (under H2O2 stress treatment), at 10 uM
[19] = WI-38 cells, 10 μM, (*) = compromised ability to protect cells from H2O2, could be due to stability issue
[20] = asterisks indicate the loss of the ability to protect cells from H2O2 over time
[21] = derived from dose response curves, 0.6-20 uM, H2O2-resistance of WI-38 cells
[22] = read-out: Est. ED50, dose response 0.6-20 μM, H2O2-resistance

T1 sequence (P09874 whole entry): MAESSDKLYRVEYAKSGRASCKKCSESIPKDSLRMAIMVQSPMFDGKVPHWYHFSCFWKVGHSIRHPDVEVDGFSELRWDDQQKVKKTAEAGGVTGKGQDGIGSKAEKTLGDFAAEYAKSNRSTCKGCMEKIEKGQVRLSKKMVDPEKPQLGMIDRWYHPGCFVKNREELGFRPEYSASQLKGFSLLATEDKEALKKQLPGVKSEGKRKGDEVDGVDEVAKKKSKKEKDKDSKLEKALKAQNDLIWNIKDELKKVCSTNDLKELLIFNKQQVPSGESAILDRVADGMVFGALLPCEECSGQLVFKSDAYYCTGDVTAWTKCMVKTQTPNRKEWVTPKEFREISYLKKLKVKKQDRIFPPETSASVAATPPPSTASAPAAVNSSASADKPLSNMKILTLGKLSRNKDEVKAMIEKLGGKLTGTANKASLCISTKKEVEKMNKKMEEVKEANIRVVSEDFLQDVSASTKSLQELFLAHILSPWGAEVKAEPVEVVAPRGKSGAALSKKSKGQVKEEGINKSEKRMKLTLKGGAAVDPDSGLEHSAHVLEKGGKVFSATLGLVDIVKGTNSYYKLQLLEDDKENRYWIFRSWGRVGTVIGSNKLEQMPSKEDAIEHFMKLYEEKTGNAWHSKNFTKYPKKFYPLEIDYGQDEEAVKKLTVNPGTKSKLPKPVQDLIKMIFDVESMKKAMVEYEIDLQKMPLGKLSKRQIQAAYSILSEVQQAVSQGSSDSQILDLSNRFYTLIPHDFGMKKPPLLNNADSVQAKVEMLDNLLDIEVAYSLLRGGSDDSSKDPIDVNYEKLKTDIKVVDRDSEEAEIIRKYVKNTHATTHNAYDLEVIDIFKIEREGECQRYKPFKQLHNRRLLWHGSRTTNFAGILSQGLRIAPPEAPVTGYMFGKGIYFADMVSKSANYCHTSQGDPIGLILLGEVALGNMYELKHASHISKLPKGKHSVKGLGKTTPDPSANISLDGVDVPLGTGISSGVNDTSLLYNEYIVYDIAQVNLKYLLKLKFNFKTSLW

| SMILES | L = PARP inhibition (human PARP1) | fold induction at 10 µM (WI-38 cells [1]; [5]) | fold induction at 10 µM (WI-38 cells [1]; [6]) | B = MMS resistant (WI-38 cells [1]; [7]) | B = MMS resistant (WI-38 cells [1]; summary score) | D = Triple resistant (WI-38 cells [1]; summary score) | M = Huntington's poly-Q toxicity attenuation [2] | K = Huntington's poly-Q toxicity attenuation [2] | ILS at 60 µM (C. elegans; [8]) [%] | ILS at 60 µM (C. elegans; [9]) [%] | ILS at 60 µM (C. elegans; [10]) [%] | ILS at 66 µM (C. elegans; [11]) [%] | ILS at 66 µM (C. elegans; [12]) [%] | ILS at 66 µM (C. elegans; [13]) [%] | O = Life span- extending scores in worms (C. elegans) | M = Lifespan-extending scores in worms (C. elegans) | activity at 10 µM [3, 14] [%] | activity at 10 µM [3, 15] [%] | activity at 10 µM [3, 16] [%] | activity at 10 µM [3, 17] [%] | other results |
| --- | --- | --- | --- | --- | --- | --- | --- | --- | --- | --- | --- | --- | --- | --- | --- | --- | --- | --- | --- | --- | --- |
| CCc1ccc(Oc2nc3ccccn3c(=O)c2/C=C(\C#N)C(=O)NCc2ccco2)cc1 [Gr-5B] | 0 | 1.13 | 1.36 | 0 | 0 | 0 | 0 | 0 | 37.2 | 2 | 1.7 | 37.2 | 2 | 1.7 | 0 | 0 | 100 | 128 | 168 | 223 | activity at 10 µM [3, 18]: 540%; P = Potential DNA-damaging [3]: 0; R = Potential DNA damaging [3]: 0; H2O2-resistant (WI-38 cells [4]; [19]): YES; No H2O2 stress treatment, at 10 uM (fold change) (WI-38 cells [4]; WI-38 cells): 1.19 fold change; H2O2-resistant (WI-38 cells [4]; [20]): YES; EC50 (WI-38 cells [4]; [21]): 8.7 µM; EC50 (WI-38 cells [4]; [22]): 14.3 µM |
| Cc1ccc(S(=O)(=O)Nc2cccc3cccnc23)cc1 [Gr-3B] | 0 | 1.72 | 1.33 | 0 | 0 | 0 | 0 | 0 | 13.7 | 12.5 | 8.1 | 13.7 | 12.5 | 8.1 | 2 (2 for observed in more than 2 trials) | 2 (2 for observed in more than 2 trials) | 81.9 | 228 | 130 | 244 | Extension of C. elegans' lifespan (qualitative) (C. elegans): could extend animal's lifespan; activity at 10 µM [3, 18]: 66.3%; P = Potential DNA-damaging [3]: 0; R = Potential DNA damaging [3]: 0; H2O2-resistant (WI-38 cells [4]; [19]): YES; No H2O2 stress treatment, at 10 uM (fold change) (WI-38 cells [4]; WI-38 cells): 0.90 fold change; H2O2-resistant (WI-38 cells [4]; [20]): YES; EC50 (WI-38 cells [4]; [21]): 8.5 µM; EC50 (WI-38 cells [4]; [22]): 4.24 µM |
| O=C(Nc1cccc(C(F)(F)F)c1)c1ccc([N+](=O)[O-])o1 [Gr-1E] | 0 | 0.72 | 1.21 | 0 | 0 | 0 | 0 | 0 | 17.4 | 6.3 | 13.8 | 17.4 | 6.3 | 13.8 | 2 (2 for observed in more than 2 trials) | 2 (2 for observed in more than 2 trials) | 162 | 107 | 151 | 289 | Assay 3: MMS-resistant (WI-38 cells [1]): NO *; Assay 5: Triple resistant (WI-38 cells [1]): YES; Extension of C. elegans' lifespan (qualitative) (C. elegans): could extend animal's lifespan; activity at 10 µM [3, 18]: 475%; P = Potential DNA-damaging [3]: 0; R = Potential DNA damaging [3]: 0; H2O2-resistant (WI-38 cells [4]; [19]): YES; No H2O2 stress treatment, at 10 uM (fold change) (WI-38 cells [4]; WI-38 cells): 0.96 fold change; Assay 1: H2O2-resistant (WI-38 cells [4]): YES; H2O2-resistant (WI-38 cells [4]; [20]): YES; EC50 (WI-38 cells [4]; [21]): 3.7 µM; EC50 (WI-38 cells [4]; [22]): 2.76 µM |
| O=C(/C=C/c1cn(-c2ccccc2)nc1-c1cccnc1)c1ccccc1 [Gr-6B] | 0 | 2.12 | 1.22 | 0 | 1 | 2 | 1 | 1 | 3 | 0.2 | 20.6 | 3 | 0.2 | 20.6 | 0 | 0 | 93.4 | 112 | 136 | 176 | Assay 3: MMS-resistant (WI-38 cells [1]): YES; Assay 5: Triple resistant (WI-38 cells [1]): YES; Viability of PC12 cells upon induction of toxic poly(Q)103-Htt-EGFP aggregates ([2]; 2.5 μM, 5 μM, 10 μM and 20 μM): consistently increased the viability; Assay 20: Huntington's poly-Q toxicity attenuation ([2]; 10 uM, YES/NO): YES; ILS at 60 µM (C. elegans; on plate, CF512 temperature-sensitive sterile animals, without FuDR, 1.0 × 10^11 bacteria/ml, read-out: relative change of mean lifespan vs control, Trial 4): -1.3%; ILS at 66 µM (C. elegans; Assay 5(ac), 1.0 × 10^11 bacteria/ml, CF512 worms, no FuDR, read-out: Lifespan assay on plates): -1.3%; activity at 10 µM [3, 18]: 272%; P = Potential DNA-damaging [3]: 0; R = Potential DNA damaging [3]: 0; H2O2-resistant (WI-38 cells [4]; [19]): YES; No H2O2 stress treatment, at 10 uM (fold change) (WI-38 cells [4]; WI-38 cells): 1.10 fold change; Assay 1: H2O2-resistant (WI-38 cells [4]): YES; H2O2-resistant (WI-38 cells [4]; [20]): YES; EC50 (WI-38 cells [4]; [22]): 45.1 µM |
